Data as given in article PMC9143004, “Antioxidant Properties and Aldehyde Reactivity of PD-L1 Targeted Aryl-Pyrazolone Anticancer Agents” (Molecules, 2022).
Several values for one entry are separate records, joined by “and”; a condition that tells them apart may be missing. Identical values can stand only once. Like-named read-outs stand apart in the source and are kept apart here.

Legend:
CTLL-2 cells = experiment: Reactivation of proliferation of CTLL-2 cells; assay type: cell-based; settings: read-out: Proliferation (IC50): capacity to reactivate proliferation of CTLL-2 cells
recombinant human PD-L1 = recombinant human PD-L1 (Homo sapiens, UniProt Q9NZQ7); experiment: PD-L1 binding by microscale thermophoresis (MST); settings: for Kd: affinity for PD-L1 measured by MST
[1] = DMPO spin-trapping EPR assay under Fenton conditions in methanol; settings: DMPO 1 or 2 mM, •OCH3 radical
Protocol: In this case, we monitor the formation of an oxygen centered radical generated in the presence of the spin trapping agent DMPO under Fenton conditions (hydrogen peroxide plus ferrous ions). For practical reasons (compound solubility), experiments were carried out using methanol as a solvent and therefore, the methoxy radical is monitored. A typical six-line EPR signal is recorded, corresponding to the DMPO/^•OCH3 radical, with the characteristic hyperfine coupling constants aN = 13.9 G and aH = 8.3 G. Here again, we can measure the decay of the EPR signal in the presence of the different antioxidant compounds and compare their relative capacity to reduce the signal. Typical concentration-dependent response curves are presented in Figure 3a for compounds EDA, 2 and 4. All six compounds can induce a decrease of the EPR signal but with various degrees of efficacy (Figure 3b). Here again, the results were quantified through the measure of the area of the EPR signal as a function of the compound concentration, to allow the calculation of the reaction constants for each compound. […] Proper dose-response curves were constructed and fitted to determine the reaction rate constant (kr) for each compound, as shown in Figure 3c and the kr values are collated in Table 2.
(§1) CW-EPR experiments were performed with an X-band Bruker Elexsys E500 spectrometer (Bruker BioSpin GmbH, Rheinstetten, Germany) operating at 9.86 GHz. CW spectra were recorded at room temperature with a microwave power of 5.024–10.02 mW and a modulation amplitude of 1–2 G that assumes non-saturation conditions. The antioxidant activity was monitored using DPPH (1,1-diphenyl-2-picrylhydrazyl) at a final concentration of 100 µM as free radical scavenging molecule and DMPO (5,5-dimethyl-1-pyrroline N-oxide) as spin trap agent for the spin trapping experiments. The DMPO solution was freshly distillated prior to use at a final concentration of 1 mM or 2 mM. The solution mixture was filled into a glass capillary of 50 μL, which was in turn, placed in 4 mm quartz EPR tubes prior to analysis.
(§2) The percent inhibition of DPPH was calculated according to the following equation: I (%) = ((I0 − I)/I0) ∗ 100 where I0 is the area of the EPR spectrum of DPPH (control sample), and I is the area of the EPR spectrum of DPPH with antioxidant compound. The rate constant for the reaction of antioxidant compounds with ^•OCH3 is expressed by the following equation: 1/Ra = 1/Rf + (kr [AH]/(ka [DMPO] × Rf). Rf, and Ra indicate EPR signal area (double integration of EPR signal) of ^•OCH3, DMPO/^•OCH3, respectively. ka and [DMPO] are constants, and a plot of 1/Ra vs. [AH] (concentration of antioxidant compound) gives a straight line with 1/Rf as an intercept and kr/(ka[DMPO] Rf) as the slope. In these circumstances, the rate constant for the reaction of ^•OCH3 with antioxidant compounds (kr) can be expressed by the following equation: kr = (ka [DMPO] × slope)/interception.

PD-L1/PD-1 interaction = PD-L1/PD-1 interaction (Homo sapiens, UniProt Q9NZQ7); experiment: Disruption of the PD-L1/PD-1 interaction in cells, FRET assay; assay type: cell-based; settings: read-out: Bioactivity (IC50): capacity to disrupt the PD-L1/PD-1 interaction in cells
[2] = DPPH free radical scavenging EPR assay; settings: read-out: DPPH EC50 (concentration reducing the EPR signal by 50%); DPPH 100 μM; test compound 2–90 μM
Protocol: The antioxidant activity of the compounds was characterized for their free radical scavenging activities using DPPH (100 μM), chosen as a model radical. In this case, we monitor the decay in the DPPH EPR signal intensity which occurs when EPR-silent diamagnetic hydrazine counterparts are formed from DPPH. The first line DPPH signal intensity is then recorded in the presence of increasing amount of the test compound (2–90 μM). Representative dose-dependent variations of the EPR signal are shown in Figure 2a, for compounds EDA, 2 and 4. They all show the characteristic five-line EPR spectrum of DPPH, due to the hyperfine coupling with two equivalent nitrogens, and for which the intensity is proportional to the DPPH concentration, and its decay in the presence of an antioxidant. […] From these curves, the intensity of the EPR signal can be measured and its decay quantified (Figure 2b).
For each compound, the percentage of inhibition of the EPR signal was plotted as a function of the compound concentration, and the fitted curves used to determine EC50 values. The same procedure has been used to evaluate various types of antioxidant compounds [29]. […] In this test, the compounds rank in the order EDA, 2, 3 > 5 > 1 > 4.
as §1, §2

[3] = Solubility in the aqueous reaction medium; assay type: physicochemical; settings: methanol:ammonium formate buffer 5 mM pH 4.5 (40:60)
Protocol: To begin with, each compound was incubated with an equimolar amount of 5fU for 180 min at 37 °C in a mixture of methanol and ammonium formate buffer 5 mM, pH 4.5 (40:60, v:v). […] In each case, the reaction mixture was introduced into the mass spectrometry equipment after a dilution in methanol to achieve a final concentration of 10 pmol/µL. The formation of drug-uracil adducts was monitored and unambiguously characterized by HRMS. […] There was no solubility issue with compound. The lack of reactivity is attributable to its adamantane unit which deactivates the adjacent reactive position or produces a steric hindrance. Otherwise, the other four compounds can react easily with 5fU to generate mono- and bis-adducts, as represented in Figure 4 with compound 2. In all cases, the observed molar mass and ring double bound value (RDB) value for the different species coincide perfectly with the expected mass (Δppm < 5 ppm) and RDB value (Table 3).

Sequence of recombinant human PD-L1 (Q9NZQ7 19-290): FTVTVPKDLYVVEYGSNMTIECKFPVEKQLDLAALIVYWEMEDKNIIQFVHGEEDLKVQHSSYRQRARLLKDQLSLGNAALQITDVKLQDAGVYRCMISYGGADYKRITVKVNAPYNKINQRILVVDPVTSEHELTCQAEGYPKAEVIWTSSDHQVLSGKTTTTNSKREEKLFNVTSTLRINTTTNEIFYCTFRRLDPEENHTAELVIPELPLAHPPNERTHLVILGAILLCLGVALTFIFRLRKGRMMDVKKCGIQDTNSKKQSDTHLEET
Sequence of PD-L1/PD-1 interaction (Q9NZQ7 19-290): as above

Row | Kd (recombinant human PD-L1) [nM] | IC50 (PD-L1/PD-1 interaction) [nM] | EC50 [2] | Solubility in the aqueous medium [3] | Activity toward PD-L1 (recombinant human PD-L1; statement in the discussion) | Compound | IC50 (CTLL-2 cells; CTLL-2 cells) [nM] | DMPO kr (reaction rate constant) [1] | IC50 (CTLL-2 cells; Mus musculus, CTLL-2) [nM]
1 |  |  |  |  |  | COc1nc(OCc2cccc(-c3ccccc3)c2C)ccc1CNCCNC(C)=O [BMS-202, reference compound] | 53 ± 17 |  | 
2 | 77 ± 7 | 92 ± 9 | 70600 nM |  |  | CC1=NN(c2ccccn2)C(=O)C1 [Compound 1] |  | 1.27 10^11 M^−1 s^−1 | 102 ± 8
3 | 34 ± 3 | 23 ± 3 | 36500 nM |  |  | CC1=NN(c2ccc(Cl)cc2Cl)C(=O)C1 [Compound 2] |  | 1.93 10^11 M^−1 s^−1 | 53 ± 11
4 |  |  | 34000 nM |  |  | COc1ccccc1C1=NN(c2ccc(Cl)cc2Cl)C(=O)C1 [Compound 3] |  | 1.88 10^11 M^−1 s^−1 | 79 ± 7
5 | 7 ± 3 | 3 ± 2 | 97000 nM and 97600 nM | limited solubility |  | O=C1CC(c2ccc(Cl)cc2)=NN1c1ccc(Cl)cc1Cl [Compound 4] |  | 1.04 10^11 M^−1 s^−1 | 124 ± 7
6 | 12 ± 2 | 23 ± 6 | 59700 nM |  |  | O=C1CC(C23CC4CC(CC(C4)C2)C3)=NN1c1ccccc1Cl [Compound 5] |  | 1.25 10^11 M^−1 s^−1 | 57 ± 9
7 |  |  | 35800 nM |  | totally inactive | CC1=NN(c2ccccc2)C(=O)C1 [EDA, 1-phenyl-3-methyl-5-pyrazolone, reference compound] |  | 2.59 10^11 M^−1 s^−1 | 
8 |  |  |  |  |  | Nivolumab: reference listed in Table 1; the paper does not describe it further | 58 ± 3 |  | 
